Measurements taken from US4138488A, “Diphenylmethyl picolinic acid derivatives and their use as anti-acne agents” (Schering Corporation, priority 1977, dated 1979).

Assay: In vivo topical activity

Row | Compound | in vivo topical activity
1 | CN(C)C1C(=O)C(C(N)=O)=C(O)C2(O)C(=O)C3=C(O)c4c(O)cccc4C(C)(O)C3CC12 (centres unmarked) [tetracycline] | neither hexachlorophene nor tetracycline exhibit substantial in vivo topical activity
2 | Oc1c(Cl)cc(Cl)c(Cl)c1Cc1c(O)c(Cl)cc(Cl)c1Cl [hexachlorophene] | neither hexachlorophene nor tetracycline exhibit substantial in vivo topical activity
